Experimental data from a melting point compilation (Tetko et al.; mined from patent text by program, amines drawn as free bases though some values may be those of a salt).

melting point [°C]	SMILES
256 to 257	CON=C1CN(c2c(F)c(N)c3c(=O)c(C(=O)O)cn(C4CC4)c3c2F)CC12CN(C(=O)OC(C)(C)C)C2
165 to 167	CC12CCC3C(CCC4CC(O)CCC43C)C1CCC2C#CBr (stereo unspecified)
171 to 172	O=C(NO)c1ccc(CNC(=O)c2[nH]c(-c3cccs3)cc2-c2ccc(O)cc2)cc1
143 to 145	C(=Cc1ccc2ccccc2c1)c1ccccc1
62 to 64	Cc1ncc(CCCOc2c(C)cc(-c3noc(C(F)(F)F)n3)cc2C)s1
141 to 142	CC(=O)N1C(=O)C(C(=O)c2cccnc2)c2ccccc21 (stereo unspecified)
168	CC(CCCOc1ccc(C2=C(c3ccccc3)CCCc3cc(O)ccc32)cc1)S(=O)(=O)Cc1ccco1 (stereo unspecified)
190 to 194	CC(C)CC(NC(=O)c1ccc2c(N)cccc2n1)C(=O)NCC#N (stereo unspecified)
101 to 105	Cc1ccccc1C(=O)N[C@@H](CC(C)C)C(=O)N[C@@H](C(C)C)[C@@H](O)c1c(-c2ccccc2)c1=O
200 to 206	COc1cc2nc(N3CCc4c(CO)cccc4C3)[nH]c(=O)c2cc1OC
191 to 192	CCN(CC)N(C(C)=O)c1nc2c(C)c3nc(N(C(C)=O)N(CC)CC)sc3cc2s1
170 to 172	CS(=O)(=O)c1ccc(C(=O)Nc2ccc(Cl)c(-c3ncc(C(=O)NO)cn3)c2)c(Cl)c1
65.5 to 67	C[C@]1(Cn2cc([N+](=O)[O-])nc2Cl)CO1
162 to 164	CN1CCN(c2ncc(-c3cc(Cl)cc(Cl)c3Cl)c(N)n2)CC1
168 to 170	O=C(OC(c1ccc(Cl)c2nc3n(c12)CCCN3c1ccc(Cl)cc1Cl)C1CC1)C1CC1 (stereo unspecified)
228 to 270	O=c1[nH]c(-c2ccc(CCN3CCN(c4cccc5cc(F)ccc45)CC3)cc2)cs1
173	N#Cc1c(N2CCN(C(=O)c3cccs3)CC2)c2cc(F)cnc2n(Cc2ccccc2)c1=O
72 to 75	CCCCCCCCCCCCCCOc1ccc(CNc2ccccc2CO)cc1
111 to 115	CC(C)C[C@@H](C=NNC(N)=O)NC(=O)[C@H](Cc1c[nH]cn1)NC(=O)C(Cc1ccccc1)Cc1ccccc1
115 to 118	O=Cc1ccc(N2CCC(O)CC2)cc1
178 to 179	CC(C)c1nsc(N2CCN(C(=O)Nc3noc4ccccc34)CC2)n1
166	CSCc1nc(C)c(C)c(O)n1
201 to 202	C=C(Br)Cc1c(O)ccc2c(C)cc(=O)oc12
101 to 103	Clc1ccccc1-n1nnnc1Cl

melting point [°C]	SMILES
178 to 184	COc1ccc(C(=CC(=O)O)c2ccc(-c3ccccc3)cc2)cc1OC
196 to 199	CC(CCC(=O)c1ccccc1)C1CC=C2C3=C(CCC21C)C1(C)CCC(O)C(C)(C)C1CC3 (stereo unspecified)
154 to 155	O=C(CCl)c1csc(C(=O)CCl)c1
213 to 214	CCNc1nc(C)c(-c2ccnc(Nc3ccc(N4CCOCC4)c(C)c3)n2)s1
138 to 140	COc1cc(N)c(Cl)cc1C(=O)NCC1CCN(CCCCCCCC(=O)c2ccccc2)CC1
73 to 75	Cc1cccc(-n2nc(C)cc2-c2ccnc(NCc3ccccc3)c2)c1
122 to 123	CCN(c1ccc(Cl)cc1[N+](=O)[O-])S(=O)(=O)c1ccc(Cl)cc1
179	CC1=C(/C=C/C(C)=C/C=C\c2ccc(C(=O)O)cc2)C(C)(C)CCC1
155	Cc1ccc(C)c(C(=O)NCC23CC4CC(CC(Cl)(C4)C2)C3)c1
252 to 254	N#Cc1cc(-c2ccccc2Cl)c[nH]c1=O
173 to 175	CCC(=O)c1ccc(=O)[nH]c1C
164 to 165	CCc1c(C)nc2ccc([N+](=O)[O-])cn2c1=O
86 to 87	O=C(O)[C@H](Cc1ccc(C(F)(F)F)o1)[C@@H](O)c1ccc(F)cc1 (racemic)
69.2 to 70.4	OCCCc1ccc(OCCN2CCOCC2)cc1Oc1ncc(C(F)(F)F)cc1Cl
85 to 90	Cc1c(C(O)C2CCc3cc4ccccc4n3C2=O)ncn1C(c1ccccc1)(c1ccccc1)c1ccccc1 (stereo unspecified)
98 to 99	CCc1noc(-c2ncn(-c3cccc(O)c3)c2COC)n1
268 to 270	O=C1CC2(C(=O)N1)C(=O)N(Cc1ccc(Cl)c(Cl)c1)c1ccc(Cl)cc12 (stereo unspecified)
130 to 131	CCOC(=O)C1=C(C)Nc2ccnc(OC(C)C)c2C1c1ccccc1C(F)(F)F (stereo unspecified)
169	O=C(O)C=Nc1cccc(F)c1C(=O)O
90	O=S(CCl)c1ncc(Cl)cn1 (stereo unspecified)
120 to 125	COc1cc(O[Si](C)(C)C(C)(C)C)c(C)c(C(=O)O)c1Br
74 to 77	CSC(=NC(=O)N(C)C)N(C)C(=O)Nc1ccccc1
137 to 139	CCOc1nc(-c2ccc(F)cc2C)c2ccc(=O)n(-c3ccccc3F)c2n1
56 to 58	Cc1nn(-c2cc(OC(C)C)c(Cl)cc2Cl)c(C)c1C

melting point [°C]	SMILES
68 to 70	O=c1c(NCCCBr)c(OC2CCCCC2)c1=O
137 to 142	Cc1cccc(NC(=O)N=C2CCCN2C)c1
169	COc1ccc(Cl)cc1C(=O)NCCc1ccc(-c2ccc(O)cc2)cc1
59.5 to 60.5	C[C@@H](O)c1cc2ccoc2cn1
101 to 103	Cc1nc2ccc(NCCCN3CCC(OC(c4ccccc4)c4ccccc4)CC3)nn2c1C(=O)O
144 to 146	CN=C(NC#N)NCCSCc1[nH]cnc1Br
86 to 88	O=[N+]([O-])c1ccc(OCc2ccc(Cl)cc2)cc1F
228 to 229	Cc1cc(S(=O)(=O)NC(=O)c2cn3cc(C(F)(F)F)cc(Cl)c3n2)c(C)cc1C#N
189 to 190	CC(=O)Nc1ccc(C#Cc2c(F)c(F)nc(F)c2F)cc1
175 to 176	CC(C)(C)OC(=O)N1CCc2c(n(CCOc3ccccc3)c3ccc(Cl)c(Cl)c23)CC1
169 to 172	COc1ccc(Cn2nc3oc(=O)cc(C)c3c2C)cc1
147 to 150	O=C(O)/C=C/c1ccc(OCCOC2CC2)cc1Oc1ncc(C(F)(F)F)cc1Cl
117 to 118	OCc1nn(-c2ccc(F)cc2)c2c1CCCC2
117 to 119	CCOC(=O)c1cn2c3c(cccc3c1=O)CC2(C)C
149 to 151	CC(C)(C)OC(=O)Nc1ccc(OC2CN(CC(c3ccccc3)c3ccccc3)C2)cc1
144	NC(=O)N1c2ccccc2C(Br)C(Br)c2ccccc21 (stereo unspecified)
91	CC(C)CCNCCOc1ccc2ccccc2c1
238 to 240	CC(C)(CC(=O)c1ccc2c(c1)CC(N1C(=O)c3ccccc3C1=O)C2)C(=O)O (stereo unspecified)
146	COc1ccc(CN(C)CCCOc2ccc(NC(=O)c3cccc4c(=O)c5cccc(C)c5[nH]c34)c(C)c2)cc1OC
132 to 133	COP(=O)(CC(COc1cccc(C(F)(F)F)c1)=NNC(N)=O)OC
169 to 171	O=[N+]([O-])c1ccc(F)cc1CS(=O)(=O)c1ccccc1
229	C[C@H]1Cn2c(=O)[nH]c3c(Br)ccc(c32)CN1C(=O)OC(C)(C)C

SMILES	melting point [°C]
Cc1c2c(nc3c(C(F)(F)F)cccc13)CCCNC2	78
